According to US20100056623A1, “FUMAGILLOL DERIVATIVES OR METHOD FOR PREPARATION OF FUMAGILLOL DERIVATIVES, AND PHARMACEUTICAL COMPOSITIONS COMPRISING THE SAME” (CHONG KUN DANG PHARMACEUTICAL CORP., priority 2005, published 2010):

Key:
[1] = Solubility test; assay type: physicochemical; details: ordinary temperature
Experimental: To a constant amount (400 mg) of each compounds of present invention, a constant amount of demineralized water, methanol and ethanol were added separately, and the solution was stirred at ordinary temperature.

[2] = test system: SD rats; experiment: Acute oral toxicity test on rats; assay type: in vivo; details: single oral dose 1 g/kg/15 ml in 0.5% methylcellulose
Experimental: The acute toxicity test was carried out using 6-weeks-old SD rats. Each Example of O-(4-(2-hydroxyethoxy)cinnamoyl)fumagillol (a compound of the Example 1), O-(3,5-dimethoxy-4-(2-hydroxyethoxy)cinnamoyl)fumagillol (a compound of the Example 2) and O-(4-(2-hydroxyethoxy)-3-methoxycinnamoyl)fumagillol (a compound of the Example 3) was suspended in 0.5% methylcellulose, and then orally administrated once to 5 of each male and each female rats per group by dosage of 1 g/kg/15 ml. After administrating the test substances, the death of the rats, clinic symptoms and the change of weight were observed. And also hematologic and blood biochemical tests were executed, the abnormality of abdominal and thoracic organs was observed by autopsy with the naked eye.

[3] = Chemical stability test (HPLC purity); details: for change of purity (in words) / 1 month Other peaks (%) / 1 month Parent peak (%): 1 month at 40±2° C.; for change of purity (in words) / 1 month Other peaks (%) / 1 month Parent peak (%) / change of purity (%): 75±5% relative humidity; for 1 month Other peaks (%) / 1 month Parent peak (%) / Initial Other peaks (%) / Initial Parent peak (%): HPLC; for 1 month Other peaks (%) / 1 month Parent peak (%): air-tight vessel; for change of purity (%): initial vs 1 month at 40±2° C.
Experimental: (§3) Each compound of the present invention was kept in an air-tight vessel for 1 month at 40±2° C. and 75±5% of relative humidity. Thereafter the HPLC purity test was executed.
(§4) 25 mL of the solution was precisely taken, and poured into 100 mL volumetric flask. Acetonitrile/20 mM ammonium acetate aqueous solution (50:50) was added thereto to be the total volume of 100 ml. The solution was filtrated, and the filtrate was used as a test liquid.
(§5) (2) Operational Condition of Instrument. • Column: Kromasil®C18 (UG 100 Å, 5 μm, 4.6 mm Φ×250 mm) • Column temperature: 30° C. • Mobil phase: 20 mM ammonium acetate (pH 4.2) buffer:acetonitrile (55:45) • Injection volume: 20 μL • Flow rate: 1.2 mL/min • Detector: UV light-absorption Spectrophotometer (detection wavelength: 306 nm)

[4] = 1 month
Experimental: as §3, §4, §5

[5] = test system: L5178Y lymphoma; experiment: Inhibiting activity on cell proliferation, MTT analysis (L5178Y); assay type: cell-based, murine; details: Mus musculus, 72 h, L5178Y lymphoma cells, 3 days with drug
Experimental: (§1) In order to compare the safety index (SI) of CPAE (calf pulmonary artery endothelial cell) with that of HUVEC (human umbilical vein endothelial cell), L5178Y lymphoma that was isolated from murine thymus was used. The safety index was defined as IC50 ratio of L5178Y against CPAE (IC50L5178Y/IC50CPAE). All cell lines, which had been kept in liquid nitrogen tank, were used after being thawed and subcultured 2˜3 times in T-flask. CPAE, HUVEC and L5178Y were cultured in MEM culture medium (20% FBS, 50˜100 μg/ml ECGS, 0.15% baking soda, 0.05 mg/ml gentamicin), M199 culture medium (20% FBS, 0.22% baking soda, 100 μg/ml heparin, 3 ng/ml bFGF, 0.05 mg/ml gentamicin) and RPMI 1640 culture medium (10% FBS, 0.2% baking soda, 0.05 mg/ml gentamicin), respectively, under the condition of 37° C. and 5% CO2.
(§2) The drug was prepared by being gradationally diluted to two or ten times by using PBS, 20 μl of the solution was added to each well of 96 well plate in triplicate. The cell, which is being incubated, was treated with trypsin to give cell suspension. The number of cell thereafter was counted. And 180 μl of the solution was inoculated to each well and cultured.
The tumor cell was cultured with drugs for 3 days and then 50 μl of MTT (3-(4,5-dimethylthiazole-2-yl)-2,5-diphenyl tetrazolium bromide, Sigma Chemical Co.) solution (2.5 mg/ml in PBS) was added thereto. And it was further cultured for 4 hours at 37° C. Culture medium was removed carefully. And after dissolving formazan crystal by adding 150 μl of DMSO, the absorbance at 570 nm was determined.

[6] = test system: CPAE (calf pulmonary artery endothelial cell); experiment: Inhibiting activity on cell proliferation, SRB analysis (CPAE); assay type: cell-based; details: for IC50: Bos taurus, Endothelial cell, 72 h, CPAE cells, 3 days with drug, SRB, read-out: IC50 (nM) CAPE; for effect compared to CKD-731 against CPAE: relative to CKD-731; for effect compared to CKD-731 against SI: safety/selectivity index relative to CKD-731
Experimental: as §1, §2
The cell was cultured with drugs for 3 days and then 50 μl of 50% TCA was added thereto (final concentration 10%). Subsequently the cell was fixed by being left alone at 4° C. for 1 hour. The well was washed 4 times by distilled water and then dried. After that 100 μl of SRB (Sulforhodamine B, Sigma Chemical Co.) solution (0.4% w/v in 1% acetic acid) was added thereto and then it was left alone at ordinary temperature for 30 minutes. Thereafter the well was washed 4 times by 1% acetic acid and dried. And then after adding 200 μl of 10 mM tris buffer, the absorbance at 570 nm was measured by automatic microplate reader (Model: Elx 808, Bio-Tek Instrument, INC). The viability was calculated from the ratio of the absorbance of the control to which drugs were not added and the well to which drugs were added.

Structure (SMILES)	The amount of solvent to dissolve 1 g of the compounds (ml), demineralized water [1] [mL]	The amount of solvent to dissolve 1 g of the compounds (ml), ethanol [1] [mL]	The amount of solvent to dissolve 1 g of the compounds (ml), methanol [1] [mL]	clinic symptoms, death and change by toxicity (autopsy) [2]	change of purity (in words) [3]	1 month Other peaks (%) [3] [%]	1 month Parent peak (%) [3] [%]	Initial Other peaks (%) [3] [%]	Initial Parent peak (%) [3] [%]	change of purity (%) [3] [%]	chemical stability compared to known compounds [4]	IC50 [5] [nM]	IC50 [6] [nM]	Selectivity Index (L5178Y/CAPE) ([6]; IC50 L5178Y / IC50 CPAE)	effect compared to CKD-731 against CPAE [6]	effect compared to CKD-731 against SI [6]
COc1cc(/C=C/C(=O)O[C@@H]2CC[C@]3(CO3)[C@@H]([C@@]3(C)O[C@@H]3CC=C(C)C)[C@@H]2OC)cc(OC)c1OCCO [Example 2, O-(3,5-dimethoxy-4-(2-hydroxyethoxy)cinnamoyl)fumagillol]	146	59	37	no notable clinic symptoms, death and change by toxicity	hardly showed a change of purity	0.9	99.1	0.9	99.1	0	more excellent chemical stability than TNP-470, CKD-732 and CKD-731	25000	0.0025	1.00 × 10^7	equivalent or not smaller than twice effect of CKD-731	equivalent or more effect of CKD-731
COc1cc(/C=C/C(=O)O[C@@H]2CC[C@]3(CO3)[C@@H]([C@@]3(C)O[C@@H]3CC=C(C)C)[C@@H]2OC)ccc1OCCO [Example 3, O-(4-(2-hydroxyethoxy)-3-methoxycinnamoyl)fumagillol]	142	61	45	no notable clinic symptoms, death and change by toxicity	hardly showed a change of purity	1.6	98.4	1.5	98.5	0.1	more excellent chemical stability than TNP-470, CKD-732 and CKD-731	56400	0.0045	–	equivalent or not smaller than twice effect of CKD-731	equivalent or more effect of CKD-731
